From patent US20240091294A1, “Extract of Top Growth of Holy Basil, and Cosmetic or Dermatological Compositions Containing Same” (Laboratoires Expanscience, priority 2021, published 2024)

Legend:
[1] = test system: normal human keratinocytes; assay: Menadione-induced ROS production in keratinocytes; assay type: cell-based; conditions: 10 mM, 24 h, Menadione 50 μM
Protocol: (§1) Normal human keratinocytes, on the one hand, and normal human fibroblasts, on the other, were treated for 24 hours with the 0.001% and 0.005% dry matter (dm) holy basil extract obtained according to Example 1 or with 10 mM N-Acetyl Cysteine (NAC), a ROS scavenger molecule used as an antioxidant reference. […] ROS were labeled with the CellRox® probe; intracellular fluorescence, proportional to the amount of ROS, was measured. Results were statistically analyzed using a one-factor ANOVA, followed by a Dunnett's test.

[2] = test system: normal human fibroblasts; assay: Menadione-induced ROS production in fibroblasts; assay type: cell-based; conditions: 10 mM, 24 h, Menadione 200 μM
Protocol: as §1

[3] = test system: normal human fibroblasts; assay: Glutathione (GSH) content in fibroblasts under menadione stress; assay type: cell-based; conditions: 10 mM, 24 h; Menadione 25 μM 4 h
Protocol: Normal human fibroblasts were treated for 24 hours with 0.001% and 0.005% dm holy basil extract obtained according to Example 1 or with the antioxidant reference, 10 mM NAC. Oxidative stress was then induced by 4-hour incubation in the presence of 25 μM menadione. GSH stock was monitored using the fluorescent probe Monochlorobimane (Mbi); intracellular fluorescence, proportional to the amount of GSH, was measured.

[4] = test system: normal human epidermal keratinocytes; assay: γH2AX expression (DNA double-strand breaks) in keratinocytes under camptothecin stress; assay type: cell-based; conditions: reference, 24 h pre-incubation; camptothecin 1 h
Protocol: Normal human epidermal keratinocytes were pre-incubated for 24 hours in the presence of the holy basil extract obtained in Example 1 at 0.001% and 0.005% dm or the reference nicotinamide, prior to 1-hour exposure to camptothecin. Camptothecin is a genotoxic compound, a toposiomerase I inhibitor, used for the induction of DNA double-strand breaks. Double-strand breaks were detected by immunostaining of γH2AX (phosphorylation of histone H2AX which intervenes early in response to double-strand breaks) and quantified by image analysis. Results were statistically analyzed using an ANOVA followed by a Tukey test.

[5] = test system: normal human keratinocytes; assay: H2O2-induced ROS production in normal human keratinocytes; assay type: cell-based; conditions: 24 h, H2O2 100 μM 20 min
Protocol: Quercetin at 10 μM or Vitamin C at 500 μM, before incorporation of the H2DCF-DA probe. Keratinocytes were then stimulated with 100 μM hydrogen peroxide (H2O2) for 20 minutes. ROS production was assessed by measuring the fluorescence emitted by the probe on contact with ROS. Results were statistically analyzed using a one-way ANOVA followed by a Tukey test.

[6] = test system: normal human epidermal keratinocytes; assay: Aquaporin-3 production in keratinocytes (immunostaining); assay type: cell-based; conditions: reference, 24 h
Protocol: Normal human epidermal keratinocytes were incubated for 24 hours in the presence of the holy basil extract obtained in Example 1 at 0.001% and 0.005% dm or retinoic acid, positive reference. Aquaporin-3 expression was assessed by immunostaining and quantified by image analysis.

[7] = test system: normal human keratinocytes; assay: IL8 produced by keratinocytes under PMA-induced inflammatory stress (ELISA); assay type: cell-based; conditions: 24 h pre-incubation, PMA 10 μg/ml 24 h
Protocol: Normal human keratinocytes were pre-incubated for 24 hours in the presence of holy basil extract obtained according to Example 1 at 0.001%, 0.005% or 0.01% dm or dexamethasone at 0.1 μM, an anti-inflammatory reference. The cells were then stimulated by 24-hour treatment in the presence of 10 μg/mL PMA (Phorbol-Myristate-Acetate).
At the end of treatment, the IL8 produced was quantified by ELISA assay in the culture supernatants.
Results were analyzed statistically using the Student t-test.

[8] = test system: reconstructed epidermis; assay: IL1α produced by PMA-stimulated reconstructed epidermis; assay type: cell-based, human; conditions: systemic, 24 h pre-incubation, PMA 0.5 μg/ml 24 h
Protocol: […] After 24 hours pre-incubation, the epidermis was stimulated with 0.5 μg/mL PMA and incubated again for 24 hours.
Culture supernatants were collected, an IL1α assay was performed on the one hand and, on the other, these supernatants (conditioned media) were plated onto cultures of normal human dermal fibroblasts.
Results were statistically analyzed using an ANOVA followed by a Tukey test.

[9] = test system: normal human dermal fibroblasts; assay: Gene expression of dermal matrix markers in fibroblasts (qPCR); assay type: cell-based; conditions: 5 ng/ml, 48 h
Protocol: Normal human dermal fibroblasts were incubated for 48 hours in the presence of holy basil extract obtained according to Example 1 at 0.001% and 0.005% dm or TGFβ1 at 5 ng/ml, the positive assay reference.
Gene expression of Collagen I, Elastin, Dermatopontin and MMP1 (Matrix-Metalloproteinase-1) was assessed by real-time quantitative PCR.
Results were statistically analyzed using a one-factor analysis of variance (ANOVA), followed by a Dunnett's post-test.

[10] = test system: normal human fibroblasts; assay: Lipid peroxidation in fibroblasts under cumene hydroperoxide stress; assay type: cell-based; conditions: 200 μM, 24 h, Cumene 50 μM
Protocol: (§2) Normal human keratinocytes, on the one hand, and normal human fibroblasts, on the other, were treated for 24 hours with the 0.001% and 0.005% dm holy basil extract obtained according to example 1 or with the antioxidant reference, vitamin E at 200 μM. Oxidative stress was then induced by incubation for 1 hour in the presence of cumene hydroperoxide at 200 or 50 μM.
(§3) Results were statistically analyzed using a one-way ANOVA followed by a Tukey test.

[11] = test system: normal human keratinocytes; assay: Lipid peroxidation in keratinocytes under cumene hydroperoxide stress; assay type: cell-based; conditions: 200 μM, 24 h, Cumene 200 μM
Protocol: as §2, §3

Molecule: CC(=O)N[C@@H](CS)C(=O)O [NAC, N-Acetyl Cysteine]
- ROS (Arbitrary units) [1]: 2490 ± 94.3 Arbitrary units
- inhibition at 10000 µM ([1]; Homo sapiens, Keratinocyte): 100%
- ROS (Arbitrary units) [2]: 3114 ± 14.2 Arbitrary units
- inhibition at 10000 µM ([2]; Homo sapiens, Fibroblast): 50%
- GSH (Arbitrary units) [3]: 4997.7 ± 947.2 Arbitrary units
- Increase of GSH [3]: 44%

Molecule: NC(=O)c1cccnc1 [Nicotinamide, nicotinamide]
- Inhibition of γH2AX expression [4]: −106%
- γH2AX, Cy5 (Intensity) [4]: 3052.8 Intensity

Molecule: O=c1c(O)c(-c2ccc(O)c(O)c2)oc2cc(O)cc(O)c12 [Quercetin]
- ROS (Fluorescence units) ([5]; 10 μM): 17453.8 ± 2880.6 Fluorescence units
- inhibition at 10 µM ([5]; Homo sapiens, Keratinocyte, 10 μM): 85%

Molecule: CC1=C(/C=C/C(C)=C/C=C/C(C)=C/C(=O)O)C(C)(C)CCC1 [Retinoic acid, retinoic acid]
- Aquaporin-3 (% of positive cells) [6]: 0.323 ± 0.004 % of positive cells
- Increase of Aquaporin-3 [6]: +45%

Molecule: O=C1O[C@H]([C@@H](O)CO)C(O)=C1O [Vitamin C]
- ROS (Fluorescence units) ([5]; 500 μM): 7165.2 ± 586.2 Fluorescence units
- inhibition at 500 µM ([5]; Homo sapiens, Keratinocyte, 500 μM): 102%

Molecule: C[C@@H]1C[C@H]2[C@@H]3CCC4=CC(=O)C=C[C@]4(C)[C@@]3(F)[C@@H](O)C[C@]2(C)[C@@]1(O)C(=O)CO [dexamethasone]
- IL8 ([7]; 0.1 μM): 4194.4 ± 814.1 pg/mL
- inhibition at 0.1 µM ([7]; Homo sapiens, Keratinocyte, read-out: Inhibition of IL8 production): 40%
- Interleukine-1 alpha ([8]; 10 μM): 334 ± 41 pg/mL
- inhibition at 10 µM ([8]; Homo sapiens, read-out: Inhibition of IL1α release): 48%

Molecule: TGFB1: TGFβ1 at 5 ng/ml, the positive assay reference
- Collagen I gene expression (Relative quantity) [9]: 10.86 ± 4.17
- Dermatopontin gene expression (Relative quantity) [9]: 43.17 ± 5.97
- Elastin gene expression (Relative quantity) [9]: 67.5 ± 20.55
- MMP1 gene expression (Relative quantity) [9]: 0.33 ± 0.13
- Collagen I gene expression (% of induction) ([9]; vs control cells): +786%
- Dermatopontin gene expression (% of induction) ([9]; vs control cells): +5001%
- Elastin gene expression (% of induction) ([9]; vs control cells): +8148%
- MMP1 gene expression (% of induction) ([9]; vs control cells): −65%

Molecule: vitamin E
- Inhibition of lipid peroxidation [10]: 71%
- Peroxidized lipids (Arbitrary units) [10]: 11413.4 ± 69.4 Arbitrary units
- Inhibition of lipid peroxidation [11]: 93%
- Peroxidized lipids (Arbitrary units) [11]: 4485.3 ± 43.3 Arbitrary units
